Measurements from patent publication US20090270379A1, “QUINOLONE DERIVATIVES USEFUL AS ANTIBACTERIAL AGENTS” (priority 2008, published 2009).
Values after ≈ are worked out from the molar mass of the structure shown.

Legend:
Type in all cases: cell-based
[1] = test system: Staphylococcus aureus OC4172; experiment: In vitro antibacterial activity (MIC), microdilution broth method, strain A; settings: cation adjusted Mueller-Hinton broth, 35° C., 16-20 hours
Procedure: (§1) Minimal inhibitory concentration (MIC) is an indicator of in vitro antibacterial activity. […] The in vitro antimicrobial activity of representative compounds of the present invention was determined by the microdilution broth method following the test method from the National Committee for Clinical Laboratory Standards (NCCLS). This method is described in the NCCLS Document M7-A4, Vol. 17, No. 2, “Methods for Dilution Antimicrobial Susceptibility Test for Bacteria that Grow Aerobically—Fourth Edition”, which is incorporated herein by reference.
(§2) In this method two-fold serial dilutions of drug in cation adjusted Mueller-Hinton broth were added to wells in microdilution trays. The test organisms were prepared by adjusting the turbidity of actively growing broth cultures so that the final concentration of test organism after it is added to the wells was approximately 5×10^4 CFU/well. Following inoculation of the microdilution trays, the trays were incubated at 35° C. for 16-20 hours and then read. The amount of growth in the wells containing the test compound was compared with the amount of growth in the growth-control wells (no test compound) used in each tray.
(§3) Representative compounds of the present invention were tested against a variety of pathogenic bacteria with results as listed in Table 3, below.

[2] = test system: strain B, fluoroquinolone-resistant clinical isolate of Streptococcus pneumoniae; experiment: In vitro antibacterial activity (MIC), microdilution broth method, strain B; settings: read-out: MIC (μg/mL) B
Procedure: as §1, §2, §3

[3] = test system: strain C, fluoroquinolone-resistant clinical isolate of Streptococcus pneumoniae; experiment: In vitro antibacterial activity (MIC), microdilution broth method, strain C; settings: read-out: MIC (μg/mL) C
Procedure: as §1, §2, §3

[4] = test system: strain D, fluoroquinolone-resistant clinical isolate of Streptococcus pneumoniae; experiment: In vitro antibacterial activity (MIC), microdilution broth method, strain D; settings: read-out: MIC (μg/mL) D
Procedure: as §1, §2, §3

[5] = test system: Streptococcus pneumoniae ATCC 49619; experiment: In vitro antibacterial activity (MIC), microdilution broth method, strain E; settings: ATCC49619, 35° C., 16-20 hours
Procedure: as §1, §2, §3

Row | SMILES | MIC [1] [µg/mL] | MIC [2] [µg/mL] | MIC [3] [µg/mL] | MIC [4] [µg/mL] | MIC [5] [µg/mL]
1 | C[C@@H]1NCCn2cc(-c3cc4c(cc3F)c(=O)c(C(=O)O)cn4C3CC3)cc21 [Compound 21, 1-Cyclopropyl-6-fluoro-7-(1S-methyl-1,2,3,4-tetrahydro-pyrrolo[1,2-a]pyrazin-7-yl)-4-oxo-1,4-dihydro-quinoline-3-carboxylic acid] | 0.25 (≈ 0.655 µM) | 4 (≈ 10.5 µM) | 16 (≈ 41.9 µM) | 16 (≈ 41.9 µM) | 1 (≈ 2.62 µM)
2 | C[C@H]1NCCn2cc(-c3cc4c(cc3F)c(=O)c(C(=O)O)cn4C3CC3)cc21 [Compound 22, 1-Cyclopropyl-6-fluoro-7-(1R-methyl-1,2,3,4-tetrahydro-pyrrolo[1,2-a]pyrazin-7-yl)-4-oxo-1,4-dihydro-quinoline-3-carboxylic acid] | 0.25 (≈ 0.655 µM) | 4 (≈ 10.5 µM) | 16 (≈ 41.9 µM) | > 16 | 1 (≈ 2.62 µM)
3 | C[C@H]1Cn2cc(-c3c(F)cc4c(=O)c(C(=O)O)cn5c4c3OC[C@@H]5C)cc2CN1 [Compound 23, 8-Fluoro-3S-methyl-9-(3S-methyl-1,2,3,4-tetrahydro-pyrrolo[1,2-a]pyrazin-7-yl)-6-oxo-2,3-dihydro-6H-1-oxa-3a-aza-phenalene-5-carboxylic acid] | 0.25 (≈ 0.629 µM) | 4 (≈ 10.1 µM) | 8 (≈ 20.1 µM) | 16 (≈ 40.3 µM) | 1 (≈ 2.52 µM)
4 | C[C@@H]1NCCn2cc(-c3c(F)cc4c(=O)c(C(=O)O)cn5c4c3OC[C@@H]5C)cc21 [Compound 24, 8-Fluoro-3S-methyl-9-(1S-methyl-1,2,3,4-tetrahydro-pyrrolo[1,2-a]pyrazin-7-yl)-6-oxo-2,3-dihydro-6H-1-oxa-3a-aza-phenalene-5-carboxylic acid] | 0.25 (≈ 0.629 µM) | 4 (≈ 10.1 µM) | 8 (≈ 20.1 µM) | 16 (≈ 40.3 µM) | 1 (≈ 2.52 µM)
5 | C[C@H]1Cn2cc(-c3nc4c(cc3F)c(=O)c(C(=O)O)cn4C3CC3)cc2CN1 [Compound 25, 1-Cyclopropyl-6-fluoro-7-(3S-methyl-1,2,3,4-tetrahydro-pyrrolo[1,2-a]pyrazin-7-yl)-4-oxo-1,4-dihydro-[1,8]naphthyridine-3-carboxylic acid] | 0.06 (≈ 0.157 µM) | 2 (≈ 5.23 µM) | 8 (≈ 20.9 µM) | 8 (≈ 20.9 µM) | 0.5 (≈ 1.31 µM)
6 | C[C@@H]1NCCn2cc(-c3nc4c(cc3F)c(=O)c(C(=O)O)cn4C3CC3)cc21 [Compound 26, 1-Cyclopropyl-6-fluoro-7-(1S-methyl-1,2,3,4-tetrahydro-pyrrolo[1,2-a]pyrazin-7-yl)-4-oxo-1,4-dihydro-[1,8]naphthyridine-3-carboxylic acid] | 0.5 (≈ 1.31 µM) | 8 (≈ 20.9 µM) | 8 (≈ 20.9 µM) | 16 (≈ 41.8 µM) | 1 (≈ 2.62 µM)
7 | C[C@H]1Cn2cc(-c3nc4c(cc3F)c(=O)c(C(=O)O)cn4-c3ccc(F)cc3F)cc2CN1 [Compound 27, 1-(2,4-Difluoro-phenyl)-6-fluoro-7-(3S-methyl-1,2,3,4-tetrahydro-pyrrolo[1,2-a]pyrazin-7-yl)-4-oxo-1,4-dihydro-[1,8]naphthyridine-3-carboxylic acid] | 0.12 (≈ 0.264 µM) | 16 (≈ 35.2 µM) | 16 (≈ 35.2 µM) | > 16 | 1 (≈ 2.2 µM)
8 | C[C@@H]1NCCn2cc(-c3nc4c(cc3F)c(=O)c(C(=O)O)cn4-c3ccc(F)cc3F)cc21 [Compound 28, 1-(2,4-Difluoro-phenyl)-6-fluoro-7-(1S-methyl-1,2,3,4-tetrahydro-pyrrolo[1,2-a]pyrazin-7-yl)-4-oxo-1,4-dihydro-[1,8]naphthyridine-3-carboxylic acid] | 1 (≈ 2.2 µM) | 16 (≈ 35.2 µM) | > 16 | > 16 | 4 (≈ 8.8 µM)
9 | C[C@@H]1NCCn2cc(-c3c(F)cc4c(=O)c(C(=O)O)cn(C5CC5)c4c3OC(F)F)cc21 [Compound 29, 1-Cyclopropyl-8-difluoromethoxy-6-fluoro-7-(1S-methyl-1,2,3,4-tetrahydro-pyrrolo[1,2-a]pyrazin-7-yl)-4-oxo-1,4-dihydro-quinoline-3-carboxylic acid] | 0.25 (≈ 0.559 µM) | 1 (≈ 2.24 µM) | 8 (≈ 17.9 µM) | 16 (≈ 35.8 µM) | 2 (≈ 4.47 µM)
10 | O=C(O)c1cn(-c2ccc(F)cc2F)c2nc(-c3cc4n(c3)CCN(Cc3ccccc3)C4)c(F)cc2c1=O [Compound 30, 7-(2-Benzyl-1,2,3,4-tetrahydro-pyrrolo[1,2-a]pyrazin-7-yl)-1-(2,4-difluoro-phenyl)-6-fluoro-4-oxo-1,4-dihydro-[1,8]naphthyridine-3-carboxylic acid] | 2 (≈ 3.77 µM) | 8 (≈ 15.1 µM) | 8 (≈ 15.1 µM) | 16 (≈ 30.2 µM) | 8 (≈ 15.1 µM)
11 | COc1c(-c2cc3n(c2)CCN(Cc2ccccc2)C3)c(F)cc2c(=O)c(C(=O)O)cn(C3CC3)c12 [Compound 31, 7-(2-Benzyl-1,2,3,4-tetrahydro-pyrrolo[1,2-a]pyrazin-7-yl)-1-cyclopropyl-6-fluoro-8-methoxy-4-oxo-1,4-dihydro-quinoline-3-carboxylic acid] | 0.25 (≈ 0.513 µM) | 8 (≈ 16.4 µM) | > 16 | > 16 | 2 (≈ 4.1 µM)
12 | COc1c(C2=C[C@H]3CNCCN3C2)c(F)cc2c(=O)c(C(=O)O)cn(C3CC3)c12 [Compound 32, 1-Cyclopropyl-6-fluoro-7-(1,2,3,4,6,8a-hexahydro-pyrrolo[1,2S-a]pyrazin-7-yl)-8-methoxy-4-oxo-1,4-dihydro-quinoline-3-carboxylic acid] | 0.25 (≈ 0.626 µM) | 16 (≈ 40.1 µM) | > 16 | 16 (≈ 40.1 µM) | 2 (≈ 5.01 µM)
13 | C[C@H]1COc2c(C3=C[C@H]4CNCCN4C3)c(F)cc3c(=O)c(C(=O)O)cn1c23 [Compound 33, 8-Fluoro-9-(1,2,3,4,6,8a-hexahydro-pyrrolo[12-a]pyrazin-7-yl)-3S-methyl-6-oxo-2,3-dihydro-6H-1-oxa-3a-aza-phenalene-5-carboxylic acid] | 0.25 (≈ 0.649 µM) | > 16 | > 16 | > 16 | 2 (≈ 5.19 µM)
14 | COc1c(-c2cc3n(c2)CCNC3)c(F)cc2c(=O)c(C(=O)O)cn(C3CC3)c12 [Compound 34, 1-Cyclopropyl-6-fluoro-8-methoxy-4-oxo-7-(1,2,3,4-tetrahydro-pyrrolo[1,2-a]pyrazin-7-yl)-1,4-dihydro-quinoline-3-carboxylic acid] | 0.03 (≈ 0.0755 µM) | 1 (≈ 2.52 µM) | 1 (≈ 2.52 µM) | 1 (≈ 2.52 µM) | 0.25 (≈ 0.629 µM)
15 | C[C@H]1COc2c(-c3cc4n(c3)CCNC4)c(F)cc3c(=O)c(C(=O)O)cn1c23 [Compound 35, 8-Fluoro-3S-methyl-6-oxo-9-(1,2,3,4-tetrahydro-pyrrolo[1,2-a]pyrazin-7-yl)-2,3-dihydro-6H-1-oxa-3a-aza-phenalene-5-carboxylic acid] | 0.5 (≈ 1.3 µM) | > 16 | > 16 | > 16 | 2 (≈ 5.22 µM)
